Activity calls are given as the source filed them.
Legend:
Exodeoxyribonuclease V = molecular target: T1, Exodeoxyribonuclease V (Escherichia coli (strain K12), UniProt P04993+P07648+P08394); assay: E. coli RecBCD inhibitors, dose response, counter-screen for AddAB inhibitor project, absorbance, V66 E. coli, mutant T4 phage (AID 492957); type: functional, cell-based, Escherichia coli str. K-12 substr. MG1655
T1 sequence (P04993 whole entry): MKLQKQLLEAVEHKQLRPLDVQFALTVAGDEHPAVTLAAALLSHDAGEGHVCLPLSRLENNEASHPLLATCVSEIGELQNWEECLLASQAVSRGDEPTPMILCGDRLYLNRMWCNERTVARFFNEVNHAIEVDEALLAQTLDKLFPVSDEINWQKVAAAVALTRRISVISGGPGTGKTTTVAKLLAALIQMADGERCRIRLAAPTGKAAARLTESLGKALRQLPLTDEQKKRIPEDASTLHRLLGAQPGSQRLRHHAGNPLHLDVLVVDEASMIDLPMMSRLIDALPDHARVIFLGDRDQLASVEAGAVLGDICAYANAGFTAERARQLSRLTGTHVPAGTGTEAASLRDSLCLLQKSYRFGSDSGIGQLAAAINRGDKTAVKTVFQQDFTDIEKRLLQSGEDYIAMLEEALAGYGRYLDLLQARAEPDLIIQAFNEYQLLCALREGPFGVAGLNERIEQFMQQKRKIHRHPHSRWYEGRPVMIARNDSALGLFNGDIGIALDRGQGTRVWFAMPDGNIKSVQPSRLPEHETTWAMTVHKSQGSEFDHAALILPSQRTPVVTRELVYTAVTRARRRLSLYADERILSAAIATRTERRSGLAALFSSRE
T1 sequence (P07648 whole entry): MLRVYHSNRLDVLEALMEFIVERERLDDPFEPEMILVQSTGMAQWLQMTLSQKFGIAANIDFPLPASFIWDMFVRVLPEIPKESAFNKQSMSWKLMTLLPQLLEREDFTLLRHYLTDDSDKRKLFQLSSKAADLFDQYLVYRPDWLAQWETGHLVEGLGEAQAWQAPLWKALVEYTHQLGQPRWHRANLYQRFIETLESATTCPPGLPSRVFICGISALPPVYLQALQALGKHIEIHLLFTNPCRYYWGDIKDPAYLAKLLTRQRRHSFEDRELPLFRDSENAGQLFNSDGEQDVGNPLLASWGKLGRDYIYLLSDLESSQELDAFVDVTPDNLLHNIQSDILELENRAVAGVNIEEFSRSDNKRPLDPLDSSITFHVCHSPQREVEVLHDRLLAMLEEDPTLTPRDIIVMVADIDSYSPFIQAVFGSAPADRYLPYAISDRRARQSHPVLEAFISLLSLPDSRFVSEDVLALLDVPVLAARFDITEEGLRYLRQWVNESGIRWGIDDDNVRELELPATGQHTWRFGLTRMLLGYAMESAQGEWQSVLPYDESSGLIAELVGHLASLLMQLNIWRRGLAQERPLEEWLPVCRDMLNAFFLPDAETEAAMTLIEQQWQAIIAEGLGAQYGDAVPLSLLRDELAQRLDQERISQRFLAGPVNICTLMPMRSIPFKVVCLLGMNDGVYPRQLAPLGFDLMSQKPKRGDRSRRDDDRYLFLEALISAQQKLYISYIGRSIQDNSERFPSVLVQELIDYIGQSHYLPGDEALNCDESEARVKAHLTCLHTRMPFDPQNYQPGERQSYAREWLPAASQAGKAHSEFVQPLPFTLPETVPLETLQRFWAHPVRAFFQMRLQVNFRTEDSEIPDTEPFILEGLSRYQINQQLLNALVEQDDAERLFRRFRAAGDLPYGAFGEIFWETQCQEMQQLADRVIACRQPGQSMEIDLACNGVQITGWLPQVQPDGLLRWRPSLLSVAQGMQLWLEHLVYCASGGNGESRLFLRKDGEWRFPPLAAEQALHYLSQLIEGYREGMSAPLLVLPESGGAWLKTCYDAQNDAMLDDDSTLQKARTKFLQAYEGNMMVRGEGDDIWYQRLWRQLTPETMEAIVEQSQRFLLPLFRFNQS
T1 sequence (P08394 whole entry): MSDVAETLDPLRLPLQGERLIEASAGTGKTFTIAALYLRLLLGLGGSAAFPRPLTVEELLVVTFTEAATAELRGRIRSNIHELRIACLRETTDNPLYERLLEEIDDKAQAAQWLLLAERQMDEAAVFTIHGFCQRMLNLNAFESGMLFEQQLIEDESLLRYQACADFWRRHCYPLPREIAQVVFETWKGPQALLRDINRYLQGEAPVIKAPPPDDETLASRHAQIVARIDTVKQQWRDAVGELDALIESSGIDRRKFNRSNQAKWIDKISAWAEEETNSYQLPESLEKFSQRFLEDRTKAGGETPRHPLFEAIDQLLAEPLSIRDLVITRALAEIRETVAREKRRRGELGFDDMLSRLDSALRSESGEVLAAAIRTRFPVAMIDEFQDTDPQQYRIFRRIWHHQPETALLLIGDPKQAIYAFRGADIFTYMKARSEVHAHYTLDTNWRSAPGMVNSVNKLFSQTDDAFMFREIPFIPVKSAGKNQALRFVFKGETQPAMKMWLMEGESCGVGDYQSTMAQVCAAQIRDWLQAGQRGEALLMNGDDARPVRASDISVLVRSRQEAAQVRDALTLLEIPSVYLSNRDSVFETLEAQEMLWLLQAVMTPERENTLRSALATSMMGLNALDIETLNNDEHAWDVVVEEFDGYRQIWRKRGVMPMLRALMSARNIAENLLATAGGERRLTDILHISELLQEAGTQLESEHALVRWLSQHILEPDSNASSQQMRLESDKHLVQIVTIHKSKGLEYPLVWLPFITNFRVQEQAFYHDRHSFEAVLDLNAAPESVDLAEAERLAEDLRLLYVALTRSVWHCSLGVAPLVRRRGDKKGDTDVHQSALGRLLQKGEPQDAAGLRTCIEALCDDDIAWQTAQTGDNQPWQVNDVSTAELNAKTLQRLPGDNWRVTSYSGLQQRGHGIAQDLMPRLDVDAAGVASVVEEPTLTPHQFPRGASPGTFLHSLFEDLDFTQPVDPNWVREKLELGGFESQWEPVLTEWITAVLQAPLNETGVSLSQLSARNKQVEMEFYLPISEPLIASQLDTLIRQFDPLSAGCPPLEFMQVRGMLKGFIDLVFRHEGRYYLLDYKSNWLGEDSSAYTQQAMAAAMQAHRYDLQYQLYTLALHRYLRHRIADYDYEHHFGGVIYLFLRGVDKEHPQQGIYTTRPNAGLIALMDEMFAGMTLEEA

[1] = Counterscreen for AddAB inhibitors: absorbance-based bacterial cell-based high throughput dose response assay for inhibitors of bacterial viability. [Related pubchem assays (depositor defined):AID435030, AID449728, AID449731, AID488942, AID488955, AID488956]; type: functional
[2] = molecular target: T2, Heat shock factor protein 1 (Mus musculus, UniProt P38532); assay: inhibition of MG132-induced HSE-luciferase signal, confirmation, cell-based, NIH3T3, luminescence, dose retest (AID 2382); type: functional;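 note: NIH3T3 fibroblasts with HSF1-driven luciferase reporter stressed by proteasome inhibitor MG132; luminescence from HSF1-driven luciferase expression after 8 hours of MG132 stress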
T2 sequence (P38532 whole entry): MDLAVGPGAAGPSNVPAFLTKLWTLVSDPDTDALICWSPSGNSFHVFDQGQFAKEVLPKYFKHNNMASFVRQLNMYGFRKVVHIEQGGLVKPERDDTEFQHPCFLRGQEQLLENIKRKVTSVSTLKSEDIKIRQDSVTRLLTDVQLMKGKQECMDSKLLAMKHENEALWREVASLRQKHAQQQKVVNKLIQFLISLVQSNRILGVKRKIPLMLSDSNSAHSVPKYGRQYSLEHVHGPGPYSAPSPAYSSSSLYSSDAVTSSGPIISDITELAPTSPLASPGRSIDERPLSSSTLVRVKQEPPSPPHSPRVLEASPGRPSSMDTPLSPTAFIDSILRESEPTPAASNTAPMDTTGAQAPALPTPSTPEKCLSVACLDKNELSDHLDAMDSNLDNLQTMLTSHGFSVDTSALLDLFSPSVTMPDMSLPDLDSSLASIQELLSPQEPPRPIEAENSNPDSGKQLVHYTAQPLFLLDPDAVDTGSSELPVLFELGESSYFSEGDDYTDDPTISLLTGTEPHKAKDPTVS

[3] = molecular target: T3, Mannose-6-phosphate isomerase (Homo sapiens, UniProt P34949); assay: PMI enzyme inhibitors, confirmation, biochemical, fluorescence intensity (AID 1535)
T3 sequence (P34949 whole entry): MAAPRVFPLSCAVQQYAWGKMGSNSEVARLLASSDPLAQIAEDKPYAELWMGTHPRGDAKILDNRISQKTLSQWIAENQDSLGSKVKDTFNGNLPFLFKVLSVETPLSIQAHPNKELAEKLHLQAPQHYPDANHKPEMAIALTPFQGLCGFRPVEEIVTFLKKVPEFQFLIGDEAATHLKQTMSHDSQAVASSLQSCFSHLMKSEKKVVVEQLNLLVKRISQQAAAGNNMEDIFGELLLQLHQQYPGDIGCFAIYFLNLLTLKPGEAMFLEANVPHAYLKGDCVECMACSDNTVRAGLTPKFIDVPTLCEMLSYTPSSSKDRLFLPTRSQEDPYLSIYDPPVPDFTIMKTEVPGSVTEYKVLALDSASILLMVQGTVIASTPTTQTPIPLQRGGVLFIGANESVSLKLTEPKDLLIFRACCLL

Vero [4] = assay: cells; type: functional, cell-based; details: Chlorocebus sabaeus
[5] = molecular target: T4, Ubiquitin-conjugating enzyme E2 N (Homo sapiens, UniProt P61088); type: functional;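 note: Dose-response confirmation in a TR-FRET assay detecting UBC13-driven polyubiquitin chain formation, inhibition measured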
T4 sequence (P61088 whole entry): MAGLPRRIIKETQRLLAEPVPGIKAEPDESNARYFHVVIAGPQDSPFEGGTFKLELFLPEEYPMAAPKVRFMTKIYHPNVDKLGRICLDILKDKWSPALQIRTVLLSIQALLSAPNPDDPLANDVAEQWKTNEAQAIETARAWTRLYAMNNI

[6] = microbe, parasite or virus in culture; type: functional; details: Mycobacterium tuberculosis
Vero [7] = assay: cells; type: functional; details: Chlorocebus sabaeus
HEK293 [8] = assay: cells; details: Homo sapiens
HEK293 [9] = assay: cells; details: Homo sapiens; remark: listed apart in the source
[10] = molecular target: T3, Mannose-6-phosphate isomerase; assay: human PMI inhibitors, high substrate, primary screen, biochemical, fluorescence intensity, high mannose 6-phosphate (AID 1220)
Keap1/Nrf2 = Keap1/Nrf2 (Homo sapiens, UniProt Q14145); assay: Keap1-Nrf2 protein-protein interaction inhibitors, dose response, biochemical, fluorescence polarization, cherry-picked samples (AID 588683)
ORF 73 = molecular target: T5, ORF 73 (Human herpesvirus 8, UniProt O40947); assay: inhibitors of C-LANA binding to LBS DNA, dose response, biochemical, fluorescence polarization, cherry-picked samples (AID 504725); design: species or system Human gammaherpesvirus 8;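 note: fluorescence polarization of a labeled DNA duplex reporting LANA DNA binding; potency is for inhibitors that block LANA binding to the DNA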
T5 sequence (O40947 whole entry): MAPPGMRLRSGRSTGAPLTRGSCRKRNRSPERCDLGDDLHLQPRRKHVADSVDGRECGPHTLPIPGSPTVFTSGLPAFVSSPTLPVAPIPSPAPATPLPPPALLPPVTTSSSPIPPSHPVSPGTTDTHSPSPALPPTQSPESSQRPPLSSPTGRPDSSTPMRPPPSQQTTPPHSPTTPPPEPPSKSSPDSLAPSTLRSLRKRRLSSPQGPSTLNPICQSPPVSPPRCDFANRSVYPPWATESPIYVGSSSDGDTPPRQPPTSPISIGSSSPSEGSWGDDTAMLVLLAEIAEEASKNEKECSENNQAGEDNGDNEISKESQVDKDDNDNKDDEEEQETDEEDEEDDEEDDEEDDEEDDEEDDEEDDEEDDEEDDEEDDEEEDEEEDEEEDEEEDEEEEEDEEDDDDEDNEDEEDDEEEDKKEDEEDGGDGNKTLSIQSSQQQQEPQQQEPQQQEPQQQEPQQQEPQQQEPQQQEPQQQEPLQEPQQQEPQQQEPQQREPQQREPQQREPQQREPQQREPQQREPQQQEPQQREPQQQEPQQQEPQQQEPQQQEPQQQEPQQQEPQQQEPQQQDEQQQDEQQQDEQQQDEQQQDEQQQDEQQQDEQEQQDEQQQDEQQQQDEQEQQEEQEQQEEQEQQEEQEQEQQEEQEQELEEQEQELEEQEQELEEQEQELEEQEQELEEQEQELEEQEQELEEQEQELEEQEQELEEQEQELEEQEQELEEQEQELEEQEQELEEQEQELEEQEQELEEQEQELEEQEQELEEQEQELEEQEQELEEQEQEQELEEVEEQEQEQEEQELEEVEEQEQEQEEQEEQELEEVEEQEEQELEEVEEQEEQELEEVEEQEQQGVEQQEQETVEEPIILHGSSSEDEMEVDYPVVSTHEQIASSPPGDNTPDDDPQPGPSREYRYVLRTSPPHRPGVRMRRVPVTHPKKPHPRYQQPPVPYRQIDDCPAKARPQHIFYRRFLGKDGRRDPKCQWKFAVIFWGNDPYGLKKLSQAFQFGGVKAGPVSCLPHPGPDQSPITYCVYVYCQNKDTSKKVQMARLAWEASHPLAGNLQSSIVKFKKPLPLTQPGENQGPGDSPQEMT

[11] = molecular target: Voltage-dependent T-type calcium channel subunit alpha-1H (Homo sapiens, UniProt O95180); type: functional;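 note: channel activity triggered by adding a high calcium stimulation buffer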
Chain of Voltage-dependent T-type calcium channel subunit alpha-1H (O95180 whole entry): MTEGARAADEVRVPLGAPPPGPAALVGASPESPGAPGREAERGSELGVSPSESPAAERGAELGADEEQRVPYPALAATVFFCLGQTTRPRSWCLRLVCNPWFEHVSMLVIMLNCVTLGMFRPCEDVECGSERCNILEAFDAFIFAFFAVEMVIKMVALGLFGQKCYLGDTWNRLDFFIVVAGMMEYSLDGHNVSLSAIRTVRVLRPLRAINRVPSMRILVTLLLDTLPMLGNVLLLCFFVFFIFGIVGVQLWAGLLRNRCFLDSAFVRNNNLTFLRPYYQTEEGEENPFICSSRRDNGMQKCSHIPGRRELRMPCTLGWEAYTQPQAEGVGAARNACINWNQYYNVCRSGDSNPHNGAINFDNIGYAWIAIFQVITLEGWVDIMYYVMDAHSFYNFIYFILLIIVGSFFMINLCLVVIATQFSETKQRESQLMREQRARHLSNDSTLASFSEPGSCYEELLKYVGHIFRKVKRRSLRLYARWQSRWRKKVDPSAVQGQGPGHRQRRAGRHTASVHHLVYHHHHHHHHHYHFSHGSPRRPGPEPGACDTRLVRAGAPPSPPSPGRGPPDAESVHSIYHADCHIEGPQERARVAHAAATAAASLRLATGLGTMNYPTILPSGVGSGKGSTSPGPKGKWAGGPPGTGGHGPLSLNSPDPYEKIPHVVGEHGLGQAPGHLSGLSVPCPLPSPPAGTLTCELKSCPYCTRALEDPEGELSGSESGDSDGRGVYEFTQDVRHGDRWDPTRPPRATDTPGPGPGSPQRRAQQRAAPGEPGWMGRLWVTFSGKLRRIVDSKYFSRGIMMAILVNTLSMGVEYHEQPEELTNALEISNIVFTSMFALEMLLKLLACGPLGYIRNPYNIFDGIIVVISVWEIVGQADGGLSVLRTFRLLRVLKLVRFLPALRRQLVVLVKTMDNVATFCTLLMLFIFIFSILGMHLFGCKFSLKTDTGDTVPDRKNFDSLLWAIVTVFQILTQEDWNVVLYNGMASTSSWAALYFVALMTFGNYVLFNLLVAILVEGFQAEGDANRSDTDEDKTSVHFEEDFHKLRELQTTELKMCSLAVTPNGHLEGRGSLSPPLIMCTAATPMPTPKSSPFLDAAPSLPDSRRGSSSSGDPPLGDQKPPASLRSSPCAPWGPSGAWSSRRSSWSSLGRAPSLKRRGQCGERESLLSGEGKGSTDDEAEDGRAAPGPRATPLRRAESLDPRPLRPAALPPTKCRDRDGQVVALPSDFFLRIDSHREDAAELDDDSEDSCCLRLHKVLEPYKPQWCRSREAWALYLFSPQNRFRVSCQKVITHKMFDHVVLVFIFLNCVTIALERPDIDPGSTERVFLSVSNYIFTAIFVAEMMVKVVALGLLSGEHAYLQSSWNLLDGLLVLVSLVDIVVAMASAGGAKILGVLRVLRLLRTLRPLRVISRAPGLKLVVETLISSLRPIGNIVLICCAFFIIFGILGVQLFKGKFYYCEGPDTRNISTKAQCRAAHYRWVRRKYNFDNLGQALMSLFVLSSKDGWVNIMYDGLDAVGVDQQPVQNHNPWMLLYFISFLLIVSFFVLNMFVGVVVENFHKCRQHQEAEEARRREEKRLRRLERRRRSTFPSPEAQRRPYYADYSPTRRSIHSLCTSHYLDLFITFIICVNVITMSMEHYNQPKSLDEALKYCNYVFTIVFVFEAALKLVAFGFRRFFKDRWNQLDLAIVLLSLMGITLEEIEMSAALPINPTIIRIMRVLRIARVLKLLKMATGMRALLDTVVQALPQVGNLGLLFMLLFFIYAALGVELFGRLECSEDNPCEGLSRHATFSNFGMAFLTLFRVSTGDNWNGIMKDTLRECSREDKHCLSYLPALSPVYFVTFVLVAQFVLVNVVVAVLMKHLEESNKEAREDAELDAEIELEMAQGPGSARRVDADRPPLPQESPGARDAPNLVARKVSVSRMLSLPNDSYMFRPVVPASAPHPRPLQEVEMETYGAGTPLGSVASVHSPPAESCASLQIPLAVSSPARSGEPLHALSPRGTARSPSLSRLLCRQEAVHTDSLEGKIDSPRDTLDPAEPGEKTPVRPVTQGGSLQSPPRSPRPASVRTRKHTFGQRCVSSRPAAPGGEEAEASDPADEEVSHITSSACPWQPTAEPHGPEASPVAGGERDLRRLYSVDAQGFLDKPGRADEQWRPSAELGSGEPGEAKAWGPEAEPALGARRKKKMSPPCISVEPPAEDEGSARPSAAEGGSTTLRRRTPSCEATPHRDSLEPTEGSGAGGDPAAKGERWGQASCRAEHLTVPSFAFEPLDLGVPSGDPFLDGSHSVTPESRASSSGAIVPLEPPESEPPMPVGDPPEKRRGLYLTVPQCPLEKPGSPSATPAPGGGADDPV

Chain of Keap1/Nrf2 (Q16236 whole entry): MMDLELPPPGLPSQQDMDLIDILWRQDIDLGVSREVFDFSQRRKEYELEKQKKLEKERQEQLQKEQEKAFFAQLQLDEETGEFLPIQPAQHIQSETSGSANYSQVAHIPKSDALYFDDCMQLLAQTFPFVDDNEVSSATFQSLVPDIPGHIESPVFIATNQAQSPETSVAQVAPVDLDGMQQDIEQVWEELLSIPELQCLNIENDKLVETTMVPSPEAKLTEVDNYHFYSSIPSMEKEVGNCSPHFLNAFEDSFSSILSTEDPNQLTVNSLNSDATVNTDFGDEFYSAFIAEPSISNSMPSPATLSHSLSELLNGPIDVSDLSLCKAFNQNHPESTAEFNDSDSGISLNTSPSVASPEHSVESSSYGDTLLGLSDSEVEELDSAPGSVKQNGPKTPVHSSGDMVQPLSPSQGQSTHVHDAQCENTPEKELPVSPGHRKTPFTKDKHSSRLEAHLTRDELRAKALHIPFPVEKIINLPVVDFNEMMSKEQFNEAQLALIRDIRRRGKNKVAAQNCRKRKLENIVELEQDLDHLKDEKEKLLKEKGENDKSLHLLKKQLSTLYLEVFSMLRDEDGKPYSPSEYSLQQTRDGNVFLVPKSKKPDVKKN
Chain of Keap1/Nrf2 (Q14145 whole entry): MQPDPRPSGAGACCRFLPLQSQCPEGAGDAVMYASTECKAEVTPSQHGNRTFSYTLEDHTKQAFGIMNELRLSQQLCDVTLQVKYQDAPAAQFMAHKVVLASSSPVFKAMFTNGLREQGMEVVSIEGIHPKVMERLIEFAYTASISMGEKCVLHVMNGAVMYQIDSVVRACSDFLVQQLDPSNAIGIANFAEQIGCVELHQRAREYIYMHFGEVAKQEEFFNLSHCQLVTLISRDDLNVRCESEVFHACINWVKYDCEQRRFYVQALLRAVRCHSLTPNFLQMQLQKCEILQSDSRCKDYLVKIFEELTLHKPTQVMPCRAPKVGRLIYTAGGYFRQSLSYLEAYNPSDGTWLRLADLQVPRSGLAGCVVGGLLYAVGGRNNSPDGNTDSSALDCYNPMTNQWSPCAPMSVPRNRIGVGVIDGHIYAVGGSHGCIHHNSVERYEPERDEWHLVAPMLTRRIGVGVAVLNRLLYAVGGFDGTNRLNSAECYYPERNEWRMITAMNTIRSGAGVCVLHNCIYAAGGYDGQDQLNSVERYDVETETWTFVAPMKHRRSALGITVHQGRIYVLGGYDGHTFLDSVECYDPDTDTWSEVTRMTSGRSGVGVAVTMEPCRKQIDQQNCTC

Q: Which results are given for `Cc1ccc(-c2oc3ccccc3c(=O)c2O)cc1`?
A: IC50 (Exodeoxyribonuclease V): > 119 µM (inactive); IC50 [1]: > 119 µM (inactive); EC50 [2]: > 195 µM (not active)

Q: With `Clc1nss/c1=N\C1=NCCS1` as the compound, how does the IC50 [3] read?
A: Its IC50 is > 100 µM (inactive).

Q: Which IC50 [3] does the source give for `CCOc1nss/c1=N\c1ccc2ccccc2c1` here?
A: Its IC50 is > 100 µM (inactive).

Q: Which results are given for `CN1CCN(CC/C=C2/c3ccccc3Sc3ccc(S(=O)(=O)N(C)C)cc32)CC1` [THIOTHIXENE]?
A: IC50 (Vero [4]): > 25 µM (active); IC50 [5]: > 20 µM (inactive); CC50 [6]: > 40 µM (active); CC50 (Vero [7]): 15.2 µM (active)

Q: For `CC(C)Cn1c(=O)[nH]c(=O)c2c(C(F)(F)F)cc(-c3ccccc3)nc21`, which EC50 (HEK293 [8]) is on record?
A: Its EC50 is > 59.6 µM (inactive).

Q: What about the EC50 (HEK293 [9]) of the same compound?
A: Its EC50 is > 59.6 µM (inactive).

Q: Which results are given for `Cc1cc2nc3c(=O)n(C4CCCCC4)c(=O)[nH]c3nc2cc1N`?
A: IC50 [10]: > 50 µM (not active); AC50 (Keap1/Nrf2): 1.92 µM (active); AC50 (ORF 73): 27.6 µM (active)

Q: Which EC50 [11] does the source give for `CCOC(=O)C1CCCN(C(=O)C2c3ccccc3Oc3ccccc32)C1` (configuration not stated) here?
A: Its EC50 is 38.8 µM (active).

Q: What about the AC50 (Keap1/Nrf2) of the same compound?
A: The AC50 was > 52 µM (inactive).

Q: What about the AC50 (ORF 73) of the same compound?
A: Its AC50 is 127 µM (active).

Source: ChEMBL document CHEMBL1201862, “PubChem BioAssay data set” (2004)
